Reference: patent US10173999B2, “Cyclic amine derivative and pharmaceutical use thereof” (Toray Industries, Inc., priority 2015, dated 2019)
Entries after “also recorded” stand apart in the source; their conditions may differ. Counter-ions that a name gives are not always drawn.

Tested on: fibromyalgia syndrome model rats
Assay: Rat fibromyalgia syndrome model (acidic saline), allodynia by von Frey filament
Type: in vivo
Details: for allodynia (50% response threshold) vs acidic saline+distilled water group: Day 7, pregabalin 10 mg/kg
Experimental: To prepare a fibromyalgia syndrome model rat (Sluka et al., Journal of Pharmacology and Experimental Therapeutics, vol. 302, p. 1146-1150, 2002; Nagakura et al., Pain, vol. 146, p. 26-33, 2009; Sluka et al., Pain, vol. 146, p. 3-4, 2009), which is generally employed widely in basic research for fibromyalgia syndrome, acidic saline (100 μL) adjusted to pH 4.0 was intramuscularly injected to the gastrocnemius muscle of the right hind paw of Crl: CD(SD) rat (6 to 7 weeks old, male; from CHARLES RIVER LABORATORIES JAPAN, INC.) under continuous inhalation anesthesia with isoflurane, twice (once in each day of Day 1 and Day 6, wherein Day 1 was the date on which the acidic saline was initially administrated). The rats thus prepared were raised in a breeding room controlled at an indoor temperature of 21 to 25° C. and an indoor humidity of 40 to 70% under the conditions of voluntary intake of food and water. In the same manner, rats to which physiological saline in place of acidic saline was intramuscularly injected were raised. The rats thus raised and not afflicted with fibromyalgia syndrome (“physiological saline+distilled water” group in FIG. 13) were also used in the experiment.
Seven days after the initial administration of acidic saline, allodynia in each rat was measured. […] Note that, measurement of allodynia was performed by use of a von Frey filament (from North Coast Medical) in accordance with the method described in a known literature (Chaplan et al., Journal of Neuroscience Methods, vol. 53, p. 55-63, 1994).
The fibromyalgia syndrome model rats thus obtained are divided into groups such that the 50% response threshold (mean value of the right hind paw and the left hind paw) of the individual groups became equal, and a test compound was administered to the fibromyalgia syndrome model rats on Day 7 after the initial administration of acidic saline.
The compound of Example 11 (0.1 to 10 mg/kg) was dissolved in distilled water and then orally administered to fibromyalgia syndrome model rats (“acidic saline+the compound of Example 11” in FIG. 13). Pregabalin serving as a positive control (10 mg/kg; from KEMPROTEC) was dissolved in distilled water and then orally administered (“acidic saline+pregabalin” in FIG. 13). As a control, distilled water was orally administered to fibromyalgia syndrome model rats (“acidic saline+distilled water” in FIG. 13). Furthermore, distilled water was orally administered to rats not afflicted with fibromyalgia syndrome (“physiological saline+distilled water” in FIG. 13). One hour and three hours after the oral administration, allodynia in individual rats was measured to evaluate an analgesic action. At this time, the 50% response threshold value in the measurement of allodynia before oral administration of the test compound on Day 7 after initial administration of acidic saline was defined as the pre-value.
To prepare a fibromyalgia syndrome model rat (Sluka et al., Journal of Pharmacology and Experimental Therapeutics, vol. 302, p. 1146-50, 2002; Nagakura et al., Pain, vol. 146, p. 26-33, 2009; Sluka et al., Pain, vol. 146, p. 3-4, 2009), which is generally employed widely in basic research for fibromyalgia syndrome, acidic saline (100 μL) adjusted to pH 4.0 was intramuscularly injected to the gastrocnemius muscle of the right hind paw of Slc: (SD) rats (6 to 7 weeks old, male; from Japan SLC, Inc.) under continuous inhalation anesthesia with isoflurane, twice (once in each of Day 1 and Day 6, wherein Day 1 was the initial administration date of the acidic saline). The rats thus prepared were raised in a breeding room controlled at an indoor temperature of 21 to 25° C. and an indoor humidity of 40 to 70% under the conditions of voluntary intake of food and water. In the same manner, rats to which physiological saline was intramuscularly injected in place of acidic saline were raised. […]

| Compound | allodynia (50% response threshold) vs acidic saline+distilled water group (Comparative Example 8: oral, Comparative Example 1 0.1 to 1 mg/kg, 1, 2 and 3 h after dosing, hydrochloride) | persistence of analgesic action (oral administration) | allodynia (50% response threshold) vs acidic saline+distilled water group (Example 15: oral, Example 11 0.1 to 10 mg/kg, 1 and 3 h after dosing) | time the analgesic action lasted after oral administration (oral administration) [h] |
| --- | --- | --- | --- | --- |
| CN(C)C1CCN(C(=O)CCc2nccn2C)CC1 [Comparative Example 1, 1-(4-(dimethylamino)piperidin-1-yl)-3-(1-methyl-1H-imidazol-2-yl)propan-1-one hydrochloride] | statistically significantly improved; also recorded: statistically significant analgesic action | tended to significantly decrease 3 hours after oral administration | – | – |
| CN(C)C1CCN(C(=O)C[C@H](O)c2nccn2C)CC1 [Example 11, (S)-1-(4-(dimethylamino)piperidin-1-yl)-3-hydroxy-3-(1-methyl-1H-imidazol-2-yl)propan-1-one] | – | – | statistically significantly improved; also recorded: statistically significant analgesic action | 3 |
